From publication PMC6237130, “Disarming the virulence arsenal of Pseudomonas aeruginosa by blocking two-component system signaling” (Chemical Science, 2018)
Entries after “also recorded” stand apart in the source; their conditions may differ.

How the values were obtained:
HK853 [1] = target: T1, HK853 (Thermotoga maritima, UniProt Q9WZV7); assay: HK853 aggregation analysis (native-PAGE); conditions: for Compound-induced HK853 aggregation: native-PAGE, Fig. S3
Protocol: HK853 Aggregation Analysis
To analyze the propensity for compounds to cause aggregation, each was mixed at six […]
(5% (v/v) DMSO final). After incubating at RT for 30 min, 8.6 µL native-PAGE sample loading buffer was added, and 15 µL was loaded onto a 7.5% polyacrylamide gel. Proteins were resolved by native-PAGE and silver staining. Compound-induced aggregation was detected by the disappearance of the dimeric HK853 band. NH125 (Tocris Bioscience) was used as a positive […]

P. aeruginosa PA14 [2] = assay: Swarming assay; format: cell-based, Pseudomonas aeruginosa; conditions: 200 μM; for Swarming motility: after 5 days
Protocol: (§1) Swarming assays and quantification of rhamnolipids in swarm-plates
(§2) We followed the revised protocol developed by Trembley et al. for P. aeruginosa swarm assays.6 Plates consisted of modified M9 medium [20 mM NH4Cl; 12 mM Na2HPO4; 22 mM KH2PO4; 8.6 mM NaCl; 1 mM MgSO4; 1 mM CaCl2•2H2O; 11 mM dextrose; 0.5% casamino acids (Difco)] solidified with Bacto-agar (Difco). The M9 media without MgSO4 and CaCl2•2H2O was autoclaved, which were added after cooling the media ~60 °C. The pH was adjusted after autoclaving with HCl and NaOH (pH = 7.5). Then, a 1-in-100 dilution of filter-sterile stock containing 1 mg/mL Nile red (Sigma Aldrich) dissolved in 85% ethylene glycol and added (prepared the day of use to limit photoinactivation).7 Twenty mL of this media was poured into […]
(for the control experiments, same amount of DMSO was added). Plates were allowed to dry for 60 min, with the first 20 min under UV light to ensure plates were sterile following pH adjustment. P. aeruginosa PA14 strain was grown overnight (~16 h) in LB media at 37 °C and 200 RPM. Five µl of bacteria were spotted at the center of each plate, which were incubated at 30 °C in the dark and ~20% humidity. The plates were intermittently taken out for fluorescence scanning [scan settings: GE Typhoon Variable Mode Imager 9500, using 532-nm laser with DY-520XL (λex: 520 nm, λem: 664 nm)]. The scans were visualized and integrated density measurements of whole-plate fluorescence was measured using ImageJ software. Images of these plates were also taken with a Nikon D5200 DSLR camera, which were processed in Adobe Photoshop Lightroom 5 (Mac version) for phase-contrast.
Figure S9. Swarming motility of PA14 in the presence of Rilu-inhibitors at 200 µM after 5 days.
(§3) The top images are fluorescence scans for detecting Nile Red and the bottom images were taken

P. aeruginosa PA14 [3] = assay: Growth of PA14 cultures with inhibitors (OD620, CFU); format: cell-based, Pseudomonas aeruginosa; conditions: for Bacteriostatic and bactericidal properties in PA14 cultures: OD620 measurements and CFU studies, even at high concentrations (500 μM); for t = 9 h, OD620 / t = 24 h, OD620: Table S3, PA14 cultures for metabolomics, 200 µM, 37 °C
Protocol: The overnight culture was diluted 1:100 in fresh LB media. 4 mL of this culture was then put
into a 15 mL borosilicate glass tube, to which Rilu-inhibitors in DMSO were added to a final
concentration of 200 µM and 500 µM (for the control experiments, the same amount of DMSO
was added). These cultures were grown for 24 h at 37 ° C and 200 RPM, and their OD620 values
were measured using a spectrophotometer at various time points.
200 µM and 500 µM after 16 h at 37 °C.

P. aeruginosa PA14 [4] = assay: LC-MS/MS analyses of metabolites in PA14 culture supernatant; format: cell-based, Pseudomonas aeruginosa; conditions: 200 μM, 9 h, 37 °C, relative to DMSO control
Protocol: LC-MS analyses of metabolites
The overnight culture was diluted 1:100 in fresh LB media. 4 mL of this culture was added into a 15 mL borosilicate glass tube, to which Rilu-inhibitors in DMSO were added to a final concentration of 200 µM (for the control experiments, same amount of DMSO was added).
These cultures were grown for 9 h (late exponential phase) or 24 h (stationary phase) at 37 °C and 200 RPM. The OD620 values were measured using a spectrophotometer. 1 mL of each culture was placed in a 1.7 mL Eppendorf tube, centrifuged at 5,000 g for 5 min and the supernatant was removed from the cell pellets. The supernatants were directly analyzed on an ESI-LC-MS/MS instrument for metabolites and the cell pellets (from 9 h cultures) were further used for RNA extraction in q-PCR experiments.
Injections of 2 µ L were separated on Zorbax Eclipse plus C18 column (2.1 mm x 50
MeOH:5% water with 0.1% formic acid). The metabolites were separated using an isocratic elution of 100% for 0-3 min, then a 3-17 min linear gradient to 100% B, and 17-20 min of 100% B at a constant flow rate of 0.4 ml/min. Samples were measured in positive ion mode and data was collected in triplicate. Data were analyzed using the Agilent MassHunter Quantitative Analysis suite. From the extracted ion chromatograms (EICs) of the respective metabolite signals, the peak areas were normalized to the OD620 growth values of the respective cultures. All of the peak areas of the treated samples were plotted by considering the DMSO-control sample to be 100% abundance.

P. aeruginosa PA14 [5] = assay: Biofilm assay (microtitre, crystal violet); format: cell-based, Pseudomonas aeruginosa; conditions: high concentrations, PA14, 24 h, relative to DMSO control
Protocol: (§4) P. aeruginosa PA14 strain was grown overnight (~16 h) in LB media at 37 °C and 200 RPM.
The overnight culture was diluted 1:100 in fresh LB media. 200 µL of this culture was then used to inoculate each well of a microtiter plate, to which Rilu-inhibitors were added in DMSO to final concentration of 200 µM or 500 µM (for the control experiments, same amount of DMSO was added). Eight wells per plate were used for each sample. These cultures were grown for 24 h at 37 °C without shaking. After growth, the planktonic cultures were carefully removed to a new microtitre plate to measure the OD620 values. The adhered cells were washed carefully three times with sterile PBS buffer, and then the cells were fixed with MeOH for 20 min. After removing the MeOH, the wells were allowed to dry for 10 min, followed by addition of 0.1% crystal violet. After 15 min of incubation, the stain was carefully removed without touching the rest of the plate. The excess stain was washed away 3 times from the wells with distilled water and the plate was allowed to dry for ~1 h. Finally, the adhered stain was redissolved in 30% acetic acid solution (for 1 h) and absorbance was measured at 595 nm. Assays were repeated in […]
Figure S8. (a) Different stages of biofilm formation. (b) Biofilm formation assessment. All values are plotted relative to a DMSO-treated control and normalized to the final cell density (OD620). […]

Vero cells = system: Vero cells; design: method as in PMID 25531939; conditions: at <180 μM; cited from earlier work
P. aeruginosa PA14 [6] = assay: RT-qPCR of virulence and TCS genes in PA14; format: cell-based, Pseudomonas aeruginosa; conditions: PA14, 9 h, 200 and 500 μM
Protocol: RNA isolation, Reverse Transcriptase -qPCR experiments
as §4
The overnight culture was diluted 1:100 in fresh LB media. Four mL of this culture was then taken in a 15 mL borosilicate glass tube, to which Rilu-inhibitors in DMSO were added to a final concentration of 200 µM or 500 µM (for the control experiments, same amount of DMSO was added). These cultures were then grown for 9 h (late exponential phase) at 37 °C and 200 RPM, OD620 ~0.7. Total RNA was extracted from ~2 mL cell pellet using an RNAEasy Mini kit (Qiagen), according to the manufacturer’s instructions, including exogenous DNase treatment with Ambion Turbo-DNAse Kits. RNA integrity was confirmed by native gel electrophoresis and the quantities were measured using a nanophotometer. cDNA was generated using the DNA-free total RNA using (Applied Biosystems High Capacity cDNA Reverse Transcription Kits) random-primed reverse transcriptase reaction following the manufacturer’s protocol. The cDNA was used as template for quantitative PCR (BioRad MyiQ2 dual-color system) using the SYBR Green detection system (BioRad) on white 96-well PCR plates. Melt curves were obtained for every run, and any wells with multiple peaks were excluded from analysis. Signal was standardized to 2 housekeeping genes, recA, rpoD using the ∆∆C method equation:8 Relative […]
expression = 2(CT standard −C T sample), where CT (cycle time) was determined automatically by the Real Time iQ5 PCR software (BioRad). Primers (Integrated DNA Technologies) for RT-qPCR were designed using NCBI Primer-Blast software. Criteria for primer design were a […]
; primer size = 18 –22 bp; product size = 80–130 bp; product Tm
= 60– 90 °C. Samples were assayed in triplicate and statistical analyses was done with one-way ANOVA (Origin 9.1 software).
Table S5. List of primer pairs used in qPCR
Target gene Forward Reverse […]

HK853 [7] = target: T1, HK853; assay: Inhibition of HK853 activity (BODIPY-ATPγS competition, HK autophosphorylation); format: biochemical; conditions: for IC50 values for HK853 inhibitory activity: Fig. 1b and text, HK autophosphorylation; for IC50 values (µM) (95% confidence interval), n = 2: Table S1, HK853 inhibition
Protocol: Inhibition of HK853 Activity
Triton X-100 was premixed with reaction buffer to yield 0.1% (v/v) in final
25-µL reactions. In reaction buffer, 1 µM HK853 was preincubated with test compounds (final
1 µL BODIPY -ATPγS was added to bring
competitors and 5% DMSO. Samples were mixed and incubated in the dark at RT for 1 h before
quenching with 8.6 µL 4× SDS-PAGE sample loading buffer and loading 15 µL on a 10%
stacking gel. After SDS-PAGE, in-gel fluorescence detection elucidated HK853 activity, and
coomassie staining of the gels ensured even protein loading. Integrated density values of the
fluorescent gel bands were normalized as “% Activity” with respect to a control that contained
no inhibitor. Data were plotted in GraphPad Prism with relation to the log of molar inhibitor to
(control FP competition and activity assays), data were fit to a four-parameter logistic equation,
where y is the response, Bottom and Top are plateaus in the units of the y-axis, x is the log of the
molar concentration of inhibitor, HillSlope is the slope of the curve, and IC50 is the concentration
As a result, IC50 values were estimated by constraining the bottom of the curve to

P. aeruginosa PA14 [8] = assay: Rapid attachment assay; format: cell-based, Pseudomonas aeruginosa; conditions: PA14, 60 min adhesion, relative to DMSO control
Protocol: as §4
The overnight cultures were washed and diluted in LB medium to an OD620 value of 1.0. 100 µL of this suspension was used to inoculate each well of a microtiter plate in presence of Rilu-inhibitors in DMSO at 200 µM or 500 µM (for the control experiments, same amount of DMSO was added). Eight wells per plate were used for each sample. Cells were allowed to adhere for 60 min at 37 °C and 200 RPM. After the planktonic cells were removed, staining with crystal violet was carried out, as described in the biofilm assay procedure. Assays were repeated in triplicate.

P. aeruginosa PA14 [9] = assay: Quantification of rhamnolipids in swarm-plates (Nile red, ImageJ); format: cell-based, Pseudomonas aeruginosa; conditions: 200 μM, Nile red fluorescence, quantified with ImageJ
Protocol: as §1, §2
(for the control experiments, same amount of DMSO was added). Plates were allowed to dry for 60 min, with the first 20 min under UV light to ensure plates were sterile following pH adjustment. […] The plates were intermittently taken out for fluorescence scanning [scan settings: GE Typhoon Variable Mode Imager 9500, using 532-nm laser with DY-520XL (λex: 520 nm, λem: 664 nm)]. The scans were visualized and integrated density measurements of whole-plate fluorescence was measured using ImageJ software. […]
as §3

T1 sequence (Q9WZV7 entry or part of it): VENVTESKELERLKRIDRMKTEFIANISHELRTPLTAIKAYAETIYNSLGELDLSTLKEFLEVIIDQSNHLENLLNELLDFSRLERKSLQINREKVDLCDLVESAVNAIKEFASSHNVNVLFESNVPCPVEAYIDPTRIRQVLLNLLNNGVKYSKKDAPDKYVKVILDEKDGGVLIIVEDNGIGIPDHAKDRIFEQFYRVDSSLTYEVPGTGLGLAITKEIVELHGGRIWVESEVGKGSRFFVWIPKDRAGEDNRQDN

With `CCCCCCCCCCCCCCCCn1cc[n+](Cc2ccccc2)c1C.[I-]` [NH-125, reference compound] the “Concentration causing disappearance of the protein dimer band (protein aggregation)” value (HK853 [1]; native-PAGE of HK853, positive aggregation control) was no less than 10 µM.

In the case of `Nc1nc2ccc(OC(F)(F)F)cc2s1` [Rilu-1, riluzole, reference compound], the Swarming motility (P. aeruginosa PA14 [2]) is reported as “moderate difference in swarming”, the “Compound-induced HK853 aggregation” value (HK853 [1]) is reported as “non-aggregators” and the “Bacteriostatic and bactericidal properties in PA14 cultures” value (P. aeruginosa PA14 [3]) is reported as “None of these compounds substantially slowed growth or killed the organism”.

For `Nc1nc2ccc(Oc3ccc4nc(N)sc4c3)cc2s1` [Rilu-2], the “Reduction of PCN” value (P. aeruginosa PA14 [4]) was roughly 85%, the “Reduction of PYO” value (P. aeruginosa PA14 [4]) was 70% and the “Reduction of biofilm mass” value (P. aeruginosa PA14 [5]) was 25%. The “Cytotoxicity to Vero cells” value (Vero cells) was “not cytotoxic”, the “Compound-induced HK853 aggregation” value (HK853 [1]) was “non-aggregators” and the “Bacteriostatic and bactericidal properties in PA14 cultures” value (P. aeruginosa PA14 [3]) was “None of these compounds substantially slowed growth or killed the organism”. The “t = 9 h, OD620” value (P. aeruginosa PA14 [3]) was 0.851 and the “t = 24 h, OD620” value (P. aeruginosa PA14 [3]) was 1.60.

In the case of `Nc1nc2ccc([N+](=O)[O-])cc2s1` [Rilu-4], the Swarming motility (P. aeruginosa PA14 [2]) is reported as “moderate difference in swarming”, the “Effect on expression of virulence-associated genes (pqsR, fleQ and pilA)” value (“Effect on expression” below) (P. aeruginosa PA14 [6]) is reported as “substantially downregulated” and the “Compound-induced HK853 aggregation” value (HK853 [1]) is reported as “non-aggregators”. For the same compound, the “Bacteriostatic and bactericidal properties in PA14 cultures” value (P. aeruginosa PA14 [3]) was “None of these compounds substantially slowed growth or killed the organism”, the “t = 9 h, OD620” value (P. aeruginosa PA14 [3]) was 0.842 and the “t = 24 h, OD620” value (P. aeruginosa PA14 [3]) was 1.65.

In the case of `Cc1nc2ccc(N)cc2s1` [Rilu-7], the “Effect on expression” value (P. aeruginosa PA14 [6]) is reported as “does not significantly affect”.

In the case of `Nc1nc2c(Cl)cc(Cl)cc2s1` [Rilu-10], the “IC50 values for HK853 inhibitory activity” value (HK853 [7]) is reported as “No inhibition; also recorded: inactive” and the “IC50 values (µM) (95% confidence interval), n = 2” value (HK853 [7]) is reported as “No Inhibition”.

With `Nc1nc2cc(Br)c(Br)cc2s1` [Rilu-11] the “IC50 values for HK853 inhibitory activity” value (HK853 [7]) was “No inhibition; also recorded: inactive” and the “IC50 values (µM) (95% confidence interval), n = 2” value (HK853 [7]) was “No Inhibition”.

In the case of `Nc1nc2cc3sc(N)nc3cc2s1` [Rilu-12], the “Amount of PCA produced” value (P. aeruginosa PA14 [4]) is reported as roughly 8%, the “Reduction in surface attachment” value (P. aeruginosa PA14 [8]) is reported as 70% and the “Reduction of RL production on swarm agar plates” value (P. aeruginosa PA14 [9]) is reported as 70%. The “Swarming motility, tendril formation” value (P. aeruginosa PA14 [2]; after 40 h) was “most prominently”, the Swarming motility (P. aeruginosa PA14 [2]) was “major impairment in motility” and the “Effect on expression” value (P. aeruginosa PA14 [6]) was “substantially downregulated”. For the same compound, the “Compound-induced HK853 aggregation” value (HK853 [1]) was “non-aggregators”, the “Bacteriostatic and bactericidal properties in PA14 cultures” value (P. aeruginosa PA14 [3]) was “None of these compounds substantially slowed growth or killed the organism” and the “t = 9 h, OD620” value (P. aeruginosa PA14 [3]) was 0.883. For the same compound, the “t = 24 h, OD620” value (P. aeruginosa PA14 [3]) was 1.65.
